{"source": "the Kinase Knowledgebase extract (Sharma et al. 2016)"}
{"target": "PIK3CG (human) (UniProt P48736)", "sequence (P48736 whole entry, looked up)": "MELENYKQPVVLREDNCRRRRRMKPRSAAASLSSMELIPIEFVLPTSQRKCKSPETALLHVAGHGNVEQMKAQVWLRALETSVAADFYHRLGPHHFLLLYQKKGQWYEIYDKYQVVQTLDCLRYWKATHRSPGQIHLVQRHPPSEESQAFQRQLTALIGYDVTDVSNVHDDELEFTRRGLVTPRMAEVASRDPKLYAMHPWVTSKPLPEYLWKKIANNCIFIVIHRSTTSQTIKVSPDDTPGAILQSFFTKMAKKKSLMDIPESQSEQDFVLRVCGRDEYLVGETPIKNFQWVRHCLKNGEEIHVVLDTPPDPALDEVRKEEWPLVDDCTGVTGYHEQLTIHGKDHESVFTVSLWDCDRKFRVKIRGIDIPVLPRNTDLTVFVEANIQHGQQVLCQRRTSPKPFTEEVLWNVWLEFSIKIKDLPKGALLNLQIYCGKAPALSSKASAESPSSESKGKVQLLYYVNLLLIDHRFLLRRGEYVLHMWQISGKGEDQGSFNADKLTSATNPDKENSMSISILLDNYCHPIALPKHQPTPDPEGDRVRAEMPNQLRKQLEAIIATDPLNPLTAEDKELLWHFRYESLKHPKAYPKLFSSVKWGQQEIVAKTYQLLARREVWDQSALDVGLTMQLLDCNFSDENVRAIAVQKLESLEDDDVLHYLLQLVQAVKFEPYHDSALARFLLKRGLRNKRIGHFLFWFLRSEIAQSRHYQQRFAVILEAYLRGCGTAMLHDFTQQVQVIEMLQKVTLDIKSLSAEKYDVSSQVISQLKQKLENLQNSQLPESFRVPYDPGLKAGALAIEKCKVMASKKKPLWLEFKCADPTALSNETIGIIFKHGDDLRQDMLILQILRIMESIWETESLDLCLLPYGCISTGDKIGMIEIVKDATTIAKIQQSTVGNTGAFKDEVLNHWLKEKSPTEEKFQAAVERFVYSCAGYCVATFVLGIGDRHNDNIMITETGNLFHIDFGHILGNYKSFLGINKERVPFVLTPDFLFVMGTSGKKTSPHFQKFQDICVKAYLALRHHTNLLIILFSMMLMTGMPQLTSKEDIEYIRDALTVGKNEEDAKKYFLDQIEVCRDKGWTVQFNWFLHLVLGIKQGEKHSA", "test": "Inhibition of PIK3CG Kinase Activity", "units": {"IC50": "nM"}}
{"smiles": "CC(=O)Nc1nc2c(s1)-c1c(c(C3CCC3)nn1-c1ccc(C(=O)NC3CCN(CC4CCCC4)CC3)cc1Cl)CC2", "IC50": "< 600"}
{"smiles": "CC(=O)Nc1nc2c(s1)-c1c(c(C3CC3)nn1-c1ccc(C(=O)N[C@@H]3CCN(C4CCCCC4)C3)c(Cl)c1)CC2", "IC50": "< 600"}
{"smiles": "CC(=O)Nc1nc2c(s1)-c1c(c(C3CC3)nn1-c1ccc(C(=O)N3CCC(CN4CCCC4)CC3)c(Cl)c1)CC2", "IC50": "< 600"}
{"smiles": "CCCN1CCC(NC(=O)c2ccc(-n3nc(C4(C)CC4)c4c3-c3sc(NC(C)=O)nc3CC4)c(Cl)c2)CC1", "IC50": "< 600"}
{"smiles": "CCN(C(=O)c1ccc(-n2nc(C3CC3)c3c2-c2sc(NC(C)=O)nc2CC3)c(Cl)c1)[C@H]1CC[C@@H](N2CCCC2)CC1", "IC50": "< 600"}
{"smiles": "CC(=O)Nc1nc2c(s1)-c1c(c(C3CC3)nn1-c1ccc(C(=O)N[C@H]3CC[C@@H](N(C)CC4CC4)CC3)c(F)c1)CC2", "IC50": "< 600"}
{"smiles": "CC(=O)Nc1nc2c(s1)-c1c(c(C3(C)CC3)nn1-c1ccc(C(=O)N[C@H]3CC[C@@H](N4CCCCC4)CC3)cc1Cl)CC2", "IC50": "< 600"}
{"smiles": "CC(=O)Nc1nc2c(s1)-c1c(c(C3CC3)nn1-c1ccc(C(=O)NC3CCN(C4CCCC4)CC3)cc1F)CC2", "IC50": "< 600"}
{"smiles": "CC(=O)Nc1nc2c(s1)-c1c(c(C3CC3)nn1-c1ccc(C(=O)N[C@H]3CC[C@@H](N4CCCCC4)CC3)cc1F)CC2", "IC50": "< 600"}
{"smiles": "CCCN1CC[C@@H](NC(=O)c2ccc(-n3nc(C4CC4)c4c3-c3sc(NC(C)=O)nc3CC4)c(F)c2)C1", "IC50": "< 600"}
{"smiles": "CC(=O)Nc1nc2c(s1)-c1c(c(C3CC3)nn1C1CCC(C(=O)NC3CCN(CC4CCCC4)CC3)CC1)CC2", "note": "(centres undefined)", "IC50": "< 600"}
{"smiles": "CC(=O)Nc1nc2c(s1)-c1c(c(C3CC3)nn1-c1ccc(C(=O)N[C@H]3CC[C@@H](N4CCOCC4)CC3)cc1Cl)CC2", "IC50": "< 600"}
{"smiles": "CCCN1CCC(NC(=O)c2ccc(-n3nc(C4CC4)c4c3-c3sc(NC(C)=O)nc3CC4)c(F)c2)CC1", "IC50": "< 600"}
{"smiles": "CC(=O)Nc1nc2c(s1)-c1c(c(C3CC3)nn1-c1ccc(C(=O)NC3CCN(CC4CCCCC4)CC3)cc1C)CC2", "IC50": "< 600"}
{"smiles": "CC(=O)Nc1nc2c(s1)-c1c(c(C3CC3)nn1-c1ccc(C(=O)N(C)[C@@H]3CCN(CC4CCCC4)C3)cc1C)CC2", "IC50": "< 600"}
{"smiles": "CC(=O)Nc1nc2c(s1)-c1c(c(C3CC3)nn1-c1ccc(C(=O)N[C@@H]3CCN(C4CCCC4)C3)c(Cl)c1)CC2", "IC50": "< 600"}
{"smiles": "CC(=O)Nc1nc2c(s1)-c1c(c(C3(C)CC3)nn1-c1ccc(C(=O)NC3CCN(C4CCOCC4)CC3)cc1Cl)CC2", "IC50": "< 600"}
{"smiles": "CC(=O)Nc1nc2c(s1)-c1c(c(C3CC3)nn1-c1ccc(N(C)C(=O)C3CCN(C4CCCC4)CC3)cc1Cl)CC2", "IC50": "< 600"}
{"smiles": "CC(=O)Nc1nc2c(s1)-c1c(c(C3CC3)nn1-c1ccc(C(=O)N[C@H]3CC[C@@H](N4CCCC4)CC3)cc1Cl)CC2", "IC50": "< 600"}
{"smiles": "CC(=O)Nc1nc2c(s1)-c1c(c(C3CC3)nn1-c1ccc(C(=O)N(C)[C@H]3CC[C@@H](N4CCCC4)CC3)cc1C)CC2", "IC50": "< 600"}
{"smiles": "CC(=O)Nc1nc2c(s1)-c1c(c(C3CC3)nn1C1CCN(C(=O)C3CCN(CC4CCCCC4)CC3)CC1)CC2", "IC50": "< 600"}
{"smiles": "CC(=O)Nc1nc2c(s1)-c1c(c(C3CC3)nn1-c1ccc(NC(=O)[C@H]3CC[C@@H](N4CCCC4)CC3)cc1Cl)CC2", "IC50": "< 600"}
{"smiles": "CC(=O)Nc1nc2c(s1)-c1c(c(C3CC3)nn1-c1ccc(C(=O)N(C)[C@H]3CCN(C4CCCCC4)C3)c(C)c1)CC2", "IC50": "< 600"}
{"smiles": "CC(=O)Nc1nc2c(s1)-c1c(c(C3CC3)nn1-c1ccc(C(=O)N[C@@H]3CCN(C4CCCCC4)C3)cc1Cl)CC2", "IC50": "< 600"}
{"smiles": "CCCN1CCC(C(=O)Nc2ccc(-n3nc(C4CC4)c4c3-c3sc(NC(C)=O)nc3CC4)c(Cl)c2)CC1", "IC50": "< 600"}
{"smiles": "CC(=O)Nc1nc2c(s1)-c1c(c(C3CC3)nn1-c1ccc(C(=O)N3CCC(N4CCCC4)CC3)c(Cl)c1)CC2", "IC50": "< 600"}
{"smiles": "CCCN1CCC(NC(=O)C2CCC(n3nc(C4CC4)c4c3-c3sc(NC(C)=O)nc3CC4)CC2)CC1", "note": "(centres undefined)", "IC50": "< 600"}
{"smiles": "CC(=O)Nc1nc2c(s1)-c1c(c(C3CC3)nn1C1CCC(C(=O)N[C@H]3CC[C@H](N4CCCC4)CC3)CC1)CC2", "note": "(some centres undefined)", "IC50": "< 600"}
{"smiles": "CC(=O)Nc1nc2c(s1)-c1c(c(C3CC3)nn1-c1ccc(C(=O)N[C@H]3CC[C@@H](N(C)CC4CCCC4)CC3)cc1F)CC2", "IC50": "< 600"}
